Patent publication US9706776B2, “Pesticidally active substituted 5,5-bicyclic heterocycles with sulphur containing substituents” (Syngenta Participations AG, priority 2013, dated 2017)

Key:
[1] = system: Spodoptera littoralis (Egyptian cotton leaf worm); experiment: Example B1: Spodoptera littoralis larvicide, feeding/residual contact, preventive (cotton leaf discs); assay type: in vivo; details: foliar, 72 h, L1 larvae, 3 days after treatment, read-out: activity (mortality, repellent effect, feeding behaviour, growth regulation)
Source text: Example B1: Activity Against Spodoptera littoralis (Egyptian Cotton Leaf Worm)
(§1) (Larvicide, Feeding/Residual Contact Activity, Preventive)
Cotton leaf discs were placed on agar in a 24-well microtiter plate and sprayed with test solutions. After drying, the leaf discs were infested with 5 L1 larvae. The samples were checked for mortality, repellent effect, feeding behaviour, and growth regulation 3 days after treatment (DAT).

[2] = system: Diabrotica balteata (corn root worm); experiment: Example B4: Diabrotica balteata larvae L2 on maize sprouts, feeding/contact, preventative; assay type: in vivo; details: 120 h, incubation 5 days, read-out: activity (larval mortality, growth regulation)
Experimental: Example B4: Activity Against Diabrotica Balteata (Corn Root Worm)
(Larvae L2 on Maize Sprouts, Feeding/Contact, Preventative)
Maize sprouts, placed on an agar layer in 24 well micro titer plates were treated with test solutions by spraying. After drying, the MTPs were infested with L2 larvae (6-10 per well). After an incubation period of 5 days, samples were checked for larval mortality and growth regulation.

[3] = system: Plutella xylostella (diamond back moth); experiment: Example B3: Plutella xylostella larvicide, feeding/residual contact, preventive (artificial diet); assay type: in vivo; details: 120 h, L2 larvae, incubation 5 days, read-out: activity (larval mortality, antifeedant, growth regulation)
Experimental: Example B3: Activity Against Plutella xylostella (Diamond Back Moth)
as §1
24-well microtiter plate (MTP) with artificial diet was treated with test solutions by pipetting. After drying, the MTPs were infested with L2 larvae (10-15 per well). After an incubation period of 5 days, samples were checked for larval mortality, antifeedant and growth regulation.

[4] = system: Myzus persicae (green peach aphid); experiment: Example B5: Myzus persicae feeding/residual contact, preventive, mixed population (sunflower leaf discs); assay type: in vivo; details: foliar, 144 h, 6 DAT, read-out: activity (mortality and special effects)
Experimental: Example B5: Activity Against Myzus persicae (Green Peach Aphid)
(Feeding/Residual Contact Activity, Preventive), Mixed Population
Sunflower leaf discs were placed on agar in a 24-well microtiter plate and sprayed with test solutions. After drying, the leaf discs were infested with an aphid population of mixed ages. After an incubation period of 6 DAT, samples were checked for mortality and special effects (e.g. phytotoxicity).

[5] = system: Myzus persicae (green peach aphid); experiment: Example B6: Myzus persicae feeding activity sachet test, mixed population; assay type: in vivo; details: 120 h, 5 days after infestation
Source text: Example B6: Activity Against Myzus persicae (Green Peach Aphid)
(Feeding Activity Sachet Test), Mixed Population
Test compounds were applied by pipette into 24 well plates and mixed with Sucrose solution. The plates were closed with a stretched Parafilm. A plastic stencil with 24 holes is placed onto the plate and infested pea seedlings were placed directly on the Parafilm. The infested plate is closed with a gel blotting paper and another plastic stencil and then turned upside down. 5 days after infestation the samples were checked on mortality. Application rate: 12.5 ppm.

[6] = system: Euschistus heros (neotropical brown stink bug); experiment: Example B8: Euschistus heros on sprayed soybean leaf; assay type: in vivo; details: 120 h, N-2 nymphs, 5 days after infestation
Experimental: Example B8: Activity Against Euschistus heros (Neotropical Brown Stink Bug)
Soybean leaf on agar in 24-well microtiter plates were sprayed with aqueous test solutions prepared from 10′000 ppm DMSO stock solutions. After drying the leaf were infested with N-2 nymphs. The samples were assessed for mortality 5 days after infestation.

[7] = system: Spodoptera littoralis (Egyptian cotton leaf worm); experiment: Example B2: Spodoptera littoralis systemic activity (lettuce on agar); assay type: in vivo; details: 120 h, 5 days after infestation, read-out: activity (mortality, repellent effect, feeding behavior, growth regulation)
Source text: Example B2: Activity Against Spodoptera littoralis (Egyptian Cotton Leaf Worm)
Test compounds were applied by pipette into 24 well plates and mixed with agar. Lettuce seeds were placed on the agar and the multi well plate is closed by another plate which contains also agar. After 7 days the roots have absorbed the compound and the lettuce has grown into the lid plate. The lettuce leaves were now cut off into the lid plate. Spodoptera eggs were pipetted through a plastic stencil on a humid gel blotting paper and the plate closed with it. The samples are checked for mortality, repellent effect, feeding behavior, and growth regulation 5 days after infestation.

[8] = system: Myzus persicae (green peach aphid); experiment: Example B7: Myzus persicae systemic/feeding activity, curative, mixed population (pea seedlings); assay type: in vivo; details: 144 h, systemic, 6 days after introduction, read-out: activity (mortality and special effects on the plant)
Source text: Example B7: Activity Against Myzus persicae (Green Peach Aphid)
(Systemic/Feeding Activity, Curative), Mixed Population
Roots of pea seedlings, infested with an aphid population of mixed ages, were placed directly in the test solutions. 6 days after introduction, samples were checked for mortality and special effects on the plant.

[9] = system: Anopheles stephensi (Indian malaria mosquito); experiment: Example B10: Anopheles stephensi adult females on treated tissue culture plates; assay type: in vivo; details: application rate 200 ppm in ethanol; after 48 h
Experimental: Example B10: Activity Against Anopheles stephensi (Indian Malaria Mosquito)
Test solutions, at an application rate of 200 ppm in ethanol, were applied to 12-well tissue culture plates. Once the deposits were dry, five, two to five day old adult female Anopheles stephensi were added to each well, and sustained with a 10% sucrose solution in a cotton wool plug. Assessment of knockdown was made one hour after introduction, and mortality was assessed at 24 and 48 hours after introduction.

| melting point | SMILES | mortality at 400 ppm [1] | mortality at 400 ppm [2] | mortality at 400 ppm [3] | mortality at 400 ppm [4] | mortality at 12.5 ppm [5] | mortality at 400 ppm [6] | mortality at 12.5 ppm [7] | mortality at 24 ppm [8] | control of Anopheles stephensi [9] |
| --- | --- | --- | --- | --- | --- | --- | --- | --- | --- | --- |
|  | CCS(=O)(=O)c1cc(C(F)(F)F)cnc1-c1nc2sc(C(F)(F)F)nn2c1C [Compound P3, 6-[3-ethylsulfonyl-5-(trifluoromethyl)-2-pyridyl]-5-methyl-2-(trifluoromethyl)imidazo[2,1-b][1,3,4]thiadiazole] | > 80% | > 80% | > 80% | > 80% | ≥ 80% |  |  |  |  |
|  | CCS(=O)(=O)c1cc(C(F)(F)F)cnc1-c1cn2nc(C(F)(F)C(F)(F)F)sc2n1 [Compound P8] | > 80% | > 80% | > 80% | > 80% |  | > 80% | ≥ 80% |  |  |
|  | CC[S+]([O-])c1cc(C(F)(F)F)cnc1-c1cn2cc(C(F)(F)F)sc2n1 (stereo not shown) [Compound P10] | > 80% |  |  |  |  |  |  |  |  |
|  | CCS(=O)(=O)c1cccnc1-c1nc2sc(C(F)(F)F)nn2c1C [Compound P5] | > 80% |  | > 80% | > 80% |  |  |  | ≥ 80% |  |
|  | CCS(=O)(=O)c1cc(C(F)(F)F)cnc1-c1cn2cc(C(F)(F)F)sc2n1 [Compound P9, 6-[3-ethylsulfonyl-5-(trifluoromethyl)-2-pyridyl]-2-(trifluoromethyl)imidazo[2,1-b]thiazole] | > 80% | > 80% | > 80% | > 80% |  |  |  |  |  |
|  | CCS(=O)(=O)c1cc(C(F)(F)F)cnc1-c1cn2nc(C(F)(F)F)sc2n1 [Compound P4] | > 80% | > 80% | > 80% |  |  |  |  |  |  |
|  | CCS(=O)(=O)c1cccnc1-c1cn2nc(C(F)(F)F)sc2n1 [Compound P2, 6-(3-ethylsulfonyl-2-pyridyl)-2-(trifluoromethyl)imidazo[2,1-b][1,3,4]thiadiazole] | > 80% | > 80% | > 80% | > 80% | ≥ 80% |  | ≥ 80% | ≥ 80% | at least 80% |
|  | CC[S+]([O-])c1cc(C(F)(F)F)cnc1-c1cn2nc(C(F)(F)C(F)(F)F)sc2n1 (stereo not shown) [Compound P7] | > 80% | > 80% | > 80% | > 80% |  | > 80% |  |  |  |
| 110 to 112 °C | CCSc1cc(C(F)(F)F)cnc1-c1cn2nc(C(F)(F)C(F)(F)F)sc2n1 [Compound P6] |  |  |  |  |  |  |  |  |  |
